Experimental data from ChEMBL document CHEMBL1145380, “Optimization of 1,3,4-benzotriazepine-based CCK(2) antagonists to obtain potent, orally active inhibitors of gastrin-mediated gastric acid secretion” (J Med Chem, 2007).

What was measured:
[1] = biological target: T1, Cholecystokinin receptor type A (Homo sapiens, UniProt P32238); assay: Displacement of [3H]L-364718 from human recombinant CCK1 receptor expressed in CHOK1 cells; assay type: cell-based, CHO-K1
T1 sequence (P32238 whole entry): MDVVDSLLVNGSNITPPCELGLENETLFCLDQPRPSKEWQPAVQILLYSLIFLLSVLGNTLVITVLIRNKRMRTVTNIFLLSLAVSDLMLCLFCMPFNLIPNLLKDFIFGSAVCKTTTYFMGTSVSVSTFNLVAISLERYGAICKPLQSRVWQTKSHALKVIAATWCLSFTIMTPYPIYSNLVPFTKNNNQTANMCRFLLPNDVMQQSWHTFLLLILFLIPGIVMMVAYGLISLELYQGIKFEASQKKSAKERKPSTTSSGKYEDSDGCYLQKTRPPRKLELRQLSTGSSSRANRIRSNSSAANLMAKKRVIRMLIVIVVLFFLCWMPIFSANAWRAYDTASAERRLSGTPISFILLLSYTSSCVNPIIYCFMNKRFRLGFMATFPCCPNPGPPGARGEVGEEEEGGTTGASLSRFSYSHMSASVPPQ

[2] = biological target: T2, Gastrin/cholecystokinin type B receptor (Homo sapiens, UniProt P32239); assay: Displacement of [125I]BH-CCK-8S from human recombinant CCK2 receptor expressed in NIH3T3 cells
T2 sequence (P32239 whole entry): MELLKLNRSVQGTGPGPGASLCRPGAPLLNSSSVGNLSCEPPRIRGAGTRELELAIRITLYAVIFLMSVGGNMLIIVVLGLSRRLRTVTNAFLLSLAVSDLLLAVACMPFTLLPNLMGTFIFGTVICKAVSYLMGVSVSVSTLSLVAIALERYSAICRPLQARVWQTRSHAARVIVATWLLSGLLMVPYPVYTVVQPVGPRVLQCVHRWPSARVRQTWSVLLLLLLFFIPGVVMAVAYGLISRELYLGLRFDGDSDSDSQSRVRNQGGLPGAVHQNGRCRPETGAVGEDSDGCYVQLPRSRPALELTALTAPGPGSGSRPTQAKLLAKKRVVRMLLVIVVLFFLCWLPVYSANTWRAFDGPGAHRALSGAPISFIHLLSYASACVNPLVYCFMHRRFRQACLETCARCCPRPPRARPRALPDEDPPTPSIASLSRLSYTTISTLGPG

[3] = biological target: T3, Gastrin/cholecystokinin type B receptor (Canis lupus familiaris, UniProt P30552); assay: Displacement of [125I]BH-[…] from CCK2 receptor in canine gastric mucosa; assay type: tissue-based
T3 sequence (P30552 whole entry): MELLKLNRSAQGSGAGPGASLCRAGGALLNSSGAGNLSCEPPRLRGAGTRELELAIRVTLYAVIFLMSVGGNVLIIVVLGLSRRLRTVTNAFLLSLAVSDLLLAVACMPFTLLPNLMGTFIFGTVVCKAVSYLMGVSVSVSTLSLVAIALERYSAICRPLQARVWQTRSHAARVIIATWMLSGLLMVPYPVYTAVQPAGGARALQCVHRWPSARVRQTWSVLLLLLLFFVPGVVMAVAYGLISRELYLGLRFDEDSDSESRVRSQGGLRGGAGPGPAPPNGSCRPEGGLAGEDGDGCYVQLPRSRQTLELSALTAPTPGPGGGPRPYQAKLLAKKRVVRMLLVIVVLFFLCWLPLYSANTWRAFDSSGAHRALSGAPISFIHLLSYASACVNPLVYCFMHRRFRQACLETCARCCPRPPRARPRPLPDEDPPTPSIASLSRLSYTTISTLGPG

[4] = biological target: T1, Cholecystokinin receptor type A; assay: Displacement of [3H]L-364718 from human recombinant CCK1 receptor expressed in PC3 cells; assay type: cell-based, PC-3
[5] = biological target: T4, Gastrin/cholecystokinin type B receptor (Rattus norvegicus, UniProt P30553); assay: Antagonist activity at CCK2 receptor in perfused rat stomach assessed as inhibition of pentagastrin-stimulated gastric acid secretion; assay type: functional, tissue-based; conditions: read-out: pA2 (converted)
T4 sequence (P30553 whole entry): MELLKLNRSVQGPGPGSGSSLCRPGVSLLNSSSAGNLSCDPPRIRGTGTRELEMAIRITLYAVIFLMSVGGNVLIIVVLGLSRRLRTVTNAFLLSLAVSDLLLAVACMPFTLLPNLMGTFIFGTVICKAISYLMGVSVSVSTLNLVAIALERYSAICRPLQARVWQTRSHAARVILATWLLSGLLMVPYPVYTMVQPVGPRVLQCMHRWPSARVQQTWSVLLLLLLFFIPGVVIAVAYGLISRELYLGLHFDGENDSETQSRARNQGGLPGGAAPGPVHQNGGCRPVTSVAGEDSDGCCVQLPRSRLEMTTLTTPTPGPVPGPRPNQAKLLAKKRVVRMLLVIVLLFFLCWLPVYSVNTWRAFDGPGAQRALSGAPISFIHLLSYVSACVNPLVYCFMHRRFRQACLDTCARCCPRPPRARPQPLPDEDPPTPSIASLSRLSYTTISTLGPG

[6] = biological target: T5, Gastrin/cholecystokinin type B receptor (Canis lupus familiaris) (UniProt P30552); assay: Inhibition of pentagastrin-stimulated gastric acid secretion in conscious gastric fistula dog at 0.05 mg/kg, iv; assay type: functional, organism-based; design: dose 0.05 mg/kg; conditions: Stomach
T5 sequence (whole entry): T3 sequence (P30552 whole entry)

[7] = biological target: T5, Gastrin/cholecystokinin type B receptor (Canis lupus familiaris); assay: Inhibition of pentagastrin-stimulated gastric acid secretion in conscious gastric fistula dog at 1 mg/kg, iv; assay type: functional, organism-based; design: dose 1 mg/kg; conditions: Stomach

SMILES | Ki [1] [nM] | Ki [2] [nM] | Ki [4] [µM] | further results
CC(C)(C)C(=O)CN1C(=O)N(CC(=O)Nc2ccc3cnn(CC(=O)O)c3c2)N=C(C2CCCCC2)c2ccccc21 | 2140 | 0.832 | – | –
O=C(O)CSc1cccc(NC(=O)CN2N=C(C3CCCCC3)c3ccccc3N(CC(=O)C3CCCC3)C2=O)c1 | 2090 | – | – | Ki [3]: 4.79 nM
O=C(CN1N=C(C2CCCCC2)c2ccccc2N(CC(=O)C2CCCCC2)C1=O)Nc1cccc(C(=O)O)c1 | 7940 | 0.794 | – | –
O=C(CN1N=C(C2CCCCC2)c2ccccc2N(CC(=O)C2CCCC2)C1=O)Nc1cccc(C(=O)O)c1 | – | 1 | > 10 | Ki [3]: 7.08 nM; Kb [5]: 1.95 nM
CC(C)(C)C(=O)CN1C(=O)N(CC(=O)Nc2ccc3c(cnn3CC(=O)O)c2)N=C(C2CCCCC2)c2ccccc21 | 8130 | 9.33 | – | –
CC(C)(C)C(=O)CN1C(=O)N(CC(=O)Nc2cccc(-c3cccn3CC(=O)O)c2)N=C(C2CCCCC2)c2ccccc21 | – | 0.912 | – | –
CC(C)(C)C(=O)CN1C(=O)N(CC(=O)Nc2cccc(-c3nc(C(=O)O)co3)c2)N=C(C2CCCCC2)c2ccccc21 | 661 | 0.363 | – | –
Cc1ccccc1C(=O)CN1C(=O)N(CC(=O)Nc2cccc(C(=O)O)c2)N=C(C2CCCCC2)c2ccccc21 | – | 7.59 | > 10 | Ki [3]: 26.3 nM
CC(C)(C)C(=O)CN1C(=O)N(CC(=O)Nc2ccc3c(ccn3CC(=O)O)c2)N=C(C2CCCCC2)c2ccccc21 | 2510 | 0.776 | – | –
CCOCCN1C(=O)N(CC(=O)Nc2cccc(C(=O)O)c2)N=C(C2CCCCC2)c2ccccc21 | – | 490 | – | –
CC(C)(C)C(=O)CN1C(=O)N(CC(=O)Nc2cccc3c2cnn3CC(=O)O)N=C(C2CCCCC2)c2ccccc21 | 6920 | 2.75 | – | –
CC(C)(C)C(=O)CN1C(=O)N(CC(=O)Nc2cccc(OCC(=O)O)c2)N=C(C2CCCCC2)c2ccccc21 | – | 5.5 | 4.07 | –
CC(C)(C)C(=O)CN1C(=O)N(CC(=O)Nc2cccc(C(=O)O)c2)N=C(C23CC4CC(CC(C4)C2)C3)c2ccccc21 | – | 24 | 0.372 | –
CC(C)(C)C(=O)CN1C(=O)N(CC(=O)Nc2ccc3ncn(CC(=O)O)c3c2)N=C(C2CCCCC2)c2ccccc21 | > 10000 | 17 | – | –
CC(C)CCN1C(=O)N(CC(=O)Nc2cccc(C(=O)O)c2)N=C(C2CCCCC2)c2ccccc21 | – | 20.4 | > 10 | –
CC(C)(C)C(=O)CN1C(=O)N(CC(=O)Nc2cccc(Cc3nnn[nH]3)c2)N=C(C2CCCCC2)c2ccccc21 | > 10000 | 4.68 | – | –
CC(C)(C)C(=O)CN1C(=O)N(CC(=O)Nc2cccc3c2ccn3CC(=O)O)N=C(C2CCCCC2)c2ccccc21 | > 10000 | 6.03 | – | –
CC(C)(C)C(=O)CN1C(=O)N(CC(=O)Nc2cccc(-c3cn(CC(=O)O)cn3)c2)N=C(C2CCCCC2)c2ccccc21 | 1700 | 4.07 | – | –
CC(C)(C)C(=O)CN1C(=O)N(CC(=O)Nc2cccc(-c3nn[nH]n3)c2)N=C(C2CCCCC2)c2ccccc21 | 1740 | 1 | – | Ki [3]: 3.16 nM; Kb [5]: 7.76 nM
O=C(CN1N=C(C2CCCCC2)c2ccccc2N(CC(=O)C23CC4CC(CC(C4)C2)C3)C1=O)Nc1cccc(C(=O)O)c1 | – | 5.62 | 1.91 | –
CC(C)(C)C(=O)CN1C(=O)N(CC(=O)Nc2cccc(C(=O)O)c2)N=C(C2CCCC2)c2ccccc21 | – | 24 | > 10 | –

SMILES | Ki [1] [nM] | Ki [2] [nM] | Ki [4] [µM] | further results
CN1C(=O)N(CC(=O)Nc2cccc(C(=O)O)c2)N=C(C2CCCCC2)c2ccccc21 | – | 1200 | > 10 | –
O=C(O)Cc1cccc(NC(=O)CN2N=C(C3CCCCC3)c3ccccc3N(CC(=O)C3CCCC3)C2=O)c1 | > 10000 | 0.282 | – | Ki [3]: 6.31 nM
CC(C)(C)C(=O)CN1C(=O)N(CC(=O)Nc2cccc(SCc3nn[nH]n3)c2)N=C(C2CCCCC2)c2ccccc21 | 389 | 0.708 | – | –
O=C(CN1N=C(C2CCCCC2)c2ccccc2N(CC(=O)N2CCCC2)C1=O)Nc1cccc(C(=O)O)c1 | – | 16.2 | > 10 | –
CN(CC(=O)O)c1cccc(NC(=O)CN2N=C(C3CCCCC3)c3ccccc3N(CC(=O)C(C)(C)C)C2=O)c1 | 6460 | 1.07 | – | –
CC(C)(C)C(=O)CN1C(=O)N(CC(=O)Nc2cccc(S(=O)(=O)CC(=O)O)c2)N=C(C2CCCCC2)c2ccccc21 | – | 4.27 | > 10 | –
O=C(O)CCc1cccc(NC(=O)CN2N=C(C3CCCCC3)c3ccccc3N(CC(=O)C3CCCC3)C2=O)c1 | 2510 | 0.339 | – | Ki [3]: 4.27 nM
CC(C)(C)C(=O)CN1C(=O)N(CC(=O)Nc2cccc(C(=O)O)c2)N=C(C2CCCCC2)c2ccccc21 | – | – | > 10 | –
CC(C)(C)C(=O)CN1C(=O)N(CC(=O)Nc2cccc(NCC(=O)O)c2)N=C(C2CCCCC2)c2ccccc21 | – | 6.17 | 8.51 | –
CC(C)(C)C(=O)CN1C(=O)N(CC(=O)Nc2cccc(-c3cccc(C(=O)O)c3)c2)N=C(C2CCCCC2)c2ccccc21 | 550 | 1.58 | – | –
CC(C)(C)C(=O)CN1C(=O)N(CC(=O)Nc2ccc3ccn(CC(=O)O)c3c2)N=C(C2CCCCC2)c2ccccc21 | 550 | 0.295 | – | Ki [3]: 2.4 nM
CC(C)(C)C(=O)CN1C(=O)N(CC(=O)Nc2cccc(C(=O)O)c2)N=C(C2CCCCCC2)c2ccccc21 | – | 4.79 | 5.75 | –
CC(C)(C)C(=O)CN1C(=O)N(CC(=O)Nc2cccc(SCC(=O)O)c2)N=C(C2CCCCC2)c2ccccc21 | – | 0.646 | 0.646 | Ki [3]: 5.75 nM; Kb [5]: 2.75 nM
CC(=O)CN1C(=O)N(CC(=O)Nc2cccc(C(=O)O)c2)N=C(C2CCCCC2)c2ccccc21 | – | 331 | > 10 | –
CC(C)(C)C(=O)CN1C(=O)N(CC(=O)Nc2cccc(C(=O)NS(C)(=O)=O)c2)N=C(C2CCCCC2)c2ccccc21 | – | 3.89 | 2.95 | –
CC(C)(C)C(=O)CN1C(=O)N(CC(=O)Nc2cccc(-c3csc(C(=O)O)n3)c2)N=C(C2CCCCC2)c2ccccc21 | > 10000 | 0.661 | – | –
CC(C)(C)C(=O)CN1C(=O)N(CC(=O)Nc2cccc(-c3ccc(C(=O)O)o3)c2)N=C(C2CCCCC2)c2ccccc21 | 457 | 0.245 | – | –
O=C(O)c1cccc(NC(=O)c2nc(C3CCCCC3)[nH]c2COC23CC4CC(CC(C4)C2)C3)c1 | – | 19.5 | > 10 | inhibition [6]: 97%; inhibition [7]: 66%
CN(c1cccc(NC(=O)CN2N=C(C3CCCCC3)c3ccccc3N(CC(=O)C(C)(C)C)C2=O)c1)c1nn[nH]n1 | – | 1.95 | 6.46 | Ki [3]: 4.68 nM; Kb [5]: 24 nM
CNc1cccc(NC(=O)N[C@@H]2N=C(c3ccccn3)c3ccccc3N(CC(=O)C(C)(C)C)C2=O)c1 [NETAZEPIDE] | 28.8 | – | – | inhibition [6]: 97%; inhibition [7]: 66%
CC(C)(C)C(=O)CN1C(=O)N(CC(=O)Nc2cccc(CCC(=O)O)c2)N=C(C2CCCCC2)c2ccccc21 | > 10000 | 1.86 | – | –
